# Measured values as given in ChEMBL document CHEMBL3627649, “Identification of Substituted Naphthotriazolediones as Novel Tryptophan 2,3-Dioxygenase (TDO) Inhibitors through Structure-Based Virtual Screening” (J Med Chem, 2015).
# How the values were obtained:
# [1] = target: T1, Receptor-type tyrosine-protein kinase FLT3 (Homo sapiens, UniProt P36888); assay: Inhibition of FLT3 (unknown origin) expressed in Sf9 insect cells for 4 hrs by Kinase-Glo assay
# T1 sequence (P36888 whole entry): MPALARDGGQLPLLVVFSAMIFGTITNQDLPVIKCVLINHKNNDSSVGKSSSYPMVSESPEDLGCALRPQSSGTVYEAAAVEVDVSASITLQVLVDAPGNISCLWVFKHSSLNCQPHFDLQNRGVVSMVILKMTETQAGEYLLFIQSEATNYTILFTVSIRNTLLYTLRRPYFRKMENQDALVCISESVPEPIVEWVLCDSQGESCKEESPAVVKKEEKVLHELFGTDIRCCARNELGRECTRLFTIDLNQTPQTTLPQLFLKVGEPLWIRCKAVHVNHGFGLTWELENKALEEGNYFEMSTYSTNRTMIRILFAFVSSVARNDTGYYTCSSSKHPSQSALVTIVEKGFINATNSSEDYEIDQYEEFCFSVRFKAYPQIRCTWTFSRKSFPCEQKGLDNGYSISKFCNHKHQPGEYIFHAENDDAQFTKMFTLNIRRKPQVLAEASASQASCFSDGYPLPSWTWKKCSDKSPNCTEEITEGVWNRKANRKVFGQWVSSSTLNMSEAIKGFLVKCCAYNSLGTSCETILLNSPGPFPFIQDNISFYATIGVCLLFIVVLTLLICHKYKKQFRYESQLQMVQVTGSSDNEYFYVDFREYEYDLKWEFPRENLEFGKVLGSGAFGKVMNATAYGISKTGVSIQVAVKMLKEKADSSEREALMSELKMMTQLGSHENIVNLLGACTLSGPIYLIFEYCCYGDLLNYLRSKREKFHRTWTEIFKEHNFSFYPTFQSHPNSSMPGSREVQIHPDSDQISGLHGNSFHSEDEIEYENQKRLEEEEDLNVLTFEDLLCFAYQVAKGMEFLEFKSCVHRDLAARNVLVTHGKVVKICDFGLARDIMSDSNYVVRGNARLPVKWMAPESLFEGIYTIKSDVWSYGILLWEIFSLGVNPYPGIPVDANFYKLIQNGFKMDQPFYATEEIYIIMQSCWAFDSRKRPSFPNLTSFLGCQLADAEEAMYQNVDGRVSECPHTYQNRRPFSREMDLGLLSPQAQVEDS
# [2] = target: C-X-C chemokine receptor type 4 (Homo sapiens, UniProt P61073); assay: Displacement of 125I-SDF-1 from human CXCR4 expressed in HEK293 cells incubated for 1.5 hrs by Topcount analysis; format: cell-based
# Sequence of C-X-C chemokine receptor type 4 (P61073 whole entry): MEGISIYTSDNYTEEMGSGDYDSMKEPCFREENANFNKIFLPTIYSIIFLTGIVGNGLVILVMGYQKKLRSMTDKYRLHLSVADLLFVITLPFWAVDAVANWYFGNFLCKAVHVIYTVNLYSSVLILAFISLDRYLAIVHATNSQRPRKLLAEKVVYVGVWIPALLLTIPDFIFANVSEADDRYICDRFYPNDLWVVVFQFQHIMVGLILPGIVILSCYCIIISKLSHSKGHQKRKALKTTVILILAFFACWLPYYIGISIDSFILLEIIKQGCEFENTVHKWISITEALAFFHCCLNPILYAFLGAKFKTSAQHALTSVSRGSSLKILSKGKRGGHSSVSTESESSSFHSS
# [3] = Inhibition of Dengue virus type 2 NS2B-NS3 protease
# [4] = target: Epidermal growth factor receptor (Homo sapiens, UniProt P00533); assay: Inhibition of human EGFR incubated for 2 hrs by Kinase-Glo luminescent kinase assay
# Sequence of Epidermal growth factor receptor (P00533 whole entry): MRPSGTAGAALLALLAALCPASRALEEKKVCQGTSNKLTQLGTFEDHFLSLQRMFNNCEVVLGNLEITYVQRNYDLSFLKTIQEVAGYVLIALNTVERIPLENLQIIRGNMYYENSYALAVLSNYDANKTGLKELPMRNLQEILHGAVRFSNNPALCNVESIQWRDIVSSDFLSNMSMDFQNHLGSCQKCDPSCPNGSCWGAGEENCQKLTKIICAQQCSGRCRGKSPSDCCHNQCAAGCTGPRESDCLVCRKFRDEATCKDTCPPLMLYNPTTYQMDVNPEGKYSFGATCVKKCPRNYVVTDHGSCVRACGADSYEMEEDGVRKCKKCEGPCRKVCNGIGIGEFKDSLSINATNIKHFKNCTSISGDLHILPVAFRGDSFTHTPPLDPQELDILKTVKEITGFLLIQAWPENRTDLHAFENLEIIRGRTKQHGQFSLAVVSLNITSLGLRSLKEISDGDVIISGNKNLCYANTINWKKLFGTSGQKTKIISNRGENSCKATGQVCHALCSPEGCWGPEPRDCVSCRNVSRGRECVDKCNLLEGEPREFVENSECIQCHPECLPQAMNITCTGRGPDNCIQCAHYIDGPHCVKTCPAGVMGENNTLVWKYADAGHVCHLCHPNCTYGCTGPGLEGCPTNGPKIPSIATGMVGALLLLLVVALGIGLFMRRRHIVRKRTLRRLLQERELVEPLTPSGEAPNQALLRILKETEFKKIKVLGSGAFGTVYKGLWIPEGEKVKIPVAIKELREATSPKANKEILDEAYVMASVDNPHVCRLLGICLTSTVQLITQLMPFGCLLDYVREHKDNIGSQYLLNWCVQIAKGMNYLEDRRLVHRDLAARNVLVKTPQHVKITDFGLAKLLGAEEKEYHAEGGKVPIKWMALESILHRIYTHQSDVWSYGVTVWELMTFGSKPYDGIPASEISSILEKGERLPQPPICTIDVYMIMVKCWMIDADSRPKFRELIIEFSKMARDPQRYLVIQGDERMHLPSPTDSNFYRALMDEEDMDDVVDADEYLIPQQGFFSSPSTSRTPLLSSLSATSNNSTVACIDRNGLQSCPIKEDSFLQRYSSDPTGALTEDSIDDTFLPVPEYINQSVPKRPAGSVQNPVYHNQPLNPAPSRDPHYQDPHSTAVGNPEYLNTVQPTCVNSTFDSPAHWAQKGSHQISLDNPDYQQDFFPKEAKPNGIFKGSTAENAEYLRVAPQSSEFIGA
# Aurora kinase A = target: T2, Aurora kinase A (Homo sapiens, UniProt O14965); assay: Inhibition of Aurora A (unknown origin)
# T2 sequence (O14965 whole entry): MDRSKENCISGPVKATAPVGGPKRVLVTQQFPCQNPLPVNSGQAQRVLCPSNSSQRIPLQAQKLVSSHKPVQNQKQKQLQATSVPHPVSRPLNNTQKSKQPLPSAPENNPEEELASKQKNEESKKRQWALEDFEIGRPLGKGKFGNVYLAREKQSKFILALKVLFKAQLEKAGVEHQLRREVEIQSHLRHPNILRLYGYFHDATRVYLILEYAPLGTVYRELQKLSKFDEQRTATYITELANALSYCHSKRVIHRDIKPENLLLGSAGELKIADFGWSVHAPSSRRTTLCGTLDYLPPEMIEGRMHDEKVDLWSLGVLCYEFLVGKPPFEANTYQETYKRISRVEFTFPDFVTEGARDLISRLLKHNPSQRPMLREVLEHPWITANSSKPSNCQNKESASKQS
# [5] = Inhibition of human muscle mitochondrial complex 1 by spectrophotometric assay
# Mu-type opioid receptor = Mu-type opioid receptor (Homo sapiens, UniProt P35372); assay: Inhibition of recombinant mu-opioid receptor (unknown origin) expressed in CHO cells for 60 mins; format: cell-based
# Sequence of Mu-type opioid receptor (P35372 whole entry): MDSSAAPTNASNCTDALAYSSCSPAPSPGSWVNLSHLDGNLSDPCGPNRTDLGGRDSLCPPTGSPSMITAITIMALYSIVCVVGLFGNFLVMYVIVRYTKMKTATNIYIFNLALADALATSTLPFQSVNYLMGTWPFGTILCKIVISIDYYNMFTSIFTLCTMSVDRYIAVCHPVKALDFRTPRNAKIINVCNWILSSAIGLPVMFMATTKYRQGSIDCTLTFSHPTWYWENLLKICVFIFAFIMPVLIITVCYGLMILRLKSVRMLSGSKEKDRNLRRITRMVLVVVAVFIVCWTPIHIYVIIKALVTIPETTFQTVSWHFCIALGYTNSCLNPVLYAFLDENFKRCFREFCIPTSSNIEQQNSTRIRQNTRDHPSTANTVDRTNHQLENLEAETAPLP
# [6] = target: Indoleamine 2,3-dioxygenase 1 (Homo sapiens, UniProt P14902); assay: Inhibition of recombinant human IDO expressed in Escherichia coli incubated for 1 hr measured by fluorescence assay
# Sequence of Indoleamine 2,3-dioxygenase 1 (P14902 whole entry): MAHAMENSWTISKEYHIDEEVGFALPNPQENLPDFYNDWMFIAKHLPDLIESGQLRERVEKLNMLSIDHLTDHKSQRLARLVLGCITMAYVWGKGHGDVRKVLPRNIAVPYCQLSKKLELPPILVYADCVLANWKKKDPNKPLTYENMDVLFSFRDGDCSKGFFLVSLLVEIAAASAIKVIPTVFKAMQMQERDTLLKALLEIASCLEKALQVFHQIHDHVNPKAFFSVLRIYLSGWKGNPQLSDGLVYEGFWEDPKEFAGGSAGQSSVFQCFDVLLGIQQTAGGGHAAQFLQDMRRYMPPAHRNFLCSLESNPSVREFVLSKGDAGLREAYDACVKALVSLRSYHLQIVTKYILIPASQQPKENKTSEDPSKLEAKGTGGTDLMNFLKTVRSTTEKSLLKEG
# [7] = target: Tryptophan 2,3-dioxygenase (Homo sapiens, UniProt P48775); assay: Inhibition of recombinant human TDO expressed in Escherichia coli incubated for 1 hr measured by absorbance assay
# Sequence of Tryptophan 2,3-dioxygenase (P48775 whole entry): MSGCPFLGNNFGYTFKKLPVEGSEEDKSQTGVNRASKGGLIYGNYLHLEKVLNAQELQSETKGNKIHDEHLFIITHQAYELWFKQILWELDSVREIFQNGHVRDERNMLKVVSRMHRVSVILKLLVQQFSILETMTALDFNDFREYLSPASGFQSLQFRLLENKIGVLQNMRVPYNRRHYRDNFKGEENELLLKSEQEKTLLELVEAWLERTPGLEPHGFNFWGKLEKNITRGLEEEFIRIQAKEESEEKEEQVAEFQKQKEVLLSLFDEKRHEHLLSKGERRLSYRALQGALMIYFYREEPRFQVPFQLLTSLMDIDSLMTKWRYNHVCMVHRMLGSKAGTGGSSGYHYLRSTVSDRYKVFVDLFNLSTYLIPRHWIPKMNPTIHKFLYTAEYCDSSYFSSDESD
# Catalase = target: T3, Catalase (Homo sapiens, UniProt P04040); assay: Inhibition of catalase (unknown origin)
# T3 sequence (P04040 whole entry): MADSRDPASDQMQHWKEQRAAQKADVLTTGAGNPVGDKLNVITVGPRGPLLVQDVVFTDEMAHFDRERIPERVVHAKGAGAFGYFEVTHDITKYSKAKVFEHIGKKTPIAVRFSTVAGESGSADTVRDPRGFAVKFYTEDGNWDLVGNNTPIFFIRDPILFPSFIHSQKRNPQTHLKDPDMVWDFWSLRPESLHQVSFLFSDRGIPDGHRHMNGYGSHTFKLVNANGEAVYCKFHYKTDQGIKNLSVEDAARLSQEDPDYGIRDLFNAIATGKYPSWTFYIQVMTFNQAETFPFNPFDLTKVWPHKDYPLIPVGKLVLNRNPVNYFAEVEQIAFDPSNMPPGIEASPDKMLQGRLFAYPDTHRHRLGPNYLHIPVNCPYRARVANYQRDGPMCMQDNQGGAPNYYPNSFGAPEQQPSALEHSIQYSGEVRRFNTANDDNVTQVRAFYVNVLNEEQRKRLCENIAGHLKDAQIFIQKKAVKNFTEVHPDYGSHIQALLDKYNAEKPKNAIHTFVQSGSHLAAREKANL
# [8] = Redox cycling activity of the compound assessed as H2O2 production incubated for 15 mins by HRP-PR assay in presence of 0.8 mM DTT
# [9] = target: T4, Tyrosine-protein phosphatase non-receptor type 1 (Homo sapiens, UniProt P18031); assay: Inhibition of human PTP1B preincubated with protein for 15 mins followed by DiFMUP addition for 1 hr measured by fluorescence analysis
# T4 sequence (P18031 whole entry): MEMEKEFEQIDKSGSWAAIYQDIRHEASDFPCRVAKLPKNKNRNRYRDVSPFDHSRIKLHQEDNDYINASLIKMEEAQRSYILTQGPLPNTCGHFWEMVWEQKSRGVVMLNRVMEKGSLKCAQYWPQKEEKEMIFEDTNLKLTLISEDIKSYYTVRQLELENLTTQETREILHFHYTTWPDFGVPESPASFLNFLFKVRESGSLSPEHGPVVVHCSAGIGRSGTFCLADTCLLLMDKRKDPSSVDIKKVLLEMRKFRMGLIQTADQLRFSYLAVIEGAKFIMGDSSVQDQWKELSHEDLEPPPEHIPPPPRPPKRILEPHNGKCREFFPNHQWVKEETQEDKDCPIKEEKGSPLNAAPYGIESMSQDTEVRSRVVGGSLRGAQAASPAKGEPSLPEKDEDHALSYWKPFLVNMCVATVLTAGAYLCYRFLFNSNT
Structure (SMILES),IC50 [6] [nM],IC50 [7] [nM],further results
O=C1c2ccccc2C(=O)c2c1nnn2Cc1ccc(F)cc1,2590,7380,–
O=C1c2ccccc2C(=O)c2c1nnn2Cc1ccc(Br)cc1,> 10000,1590,–
O=C1c2ccccc2C(=O)c2c1nnn2Cc1ccc(Cl)cc1,> 10000,6460,–
O=C(O)c1ccc(Cn2nnc3c2C(=O)c2ccccc2C3=O)cc1,2320,312,–
CCN(CC)C(=O)c1cccc(Cn2nnc3c2C(=O)c2ccccc2C3=O)c1,977,90,–
CCN(CC)C(=O)c1ccc(Cn2nnc3c2C(=O)c2ccccc2C3=O)cc1,1930,181,–
CC(=O)N1CCN(C(=O)c2cccc(Cn3nnc4c3C(=O)c3ccccc3C4=O)c2)CC1,602,59,–
O=C1c2ccccc2C(=O)c2c1nnn2Cc1cccc(C(=O)N2CCOCC2)c1,936,48,–
CN1CCN(C(=O)c2cccc(Cn3nnc4c3C(=O)c3ccccc3C4=O)c2)CC1,640,–,IC50 [1]: > 10000 nM; IC50 [2]: > 10000 nM; IC50 [3]: > 10000 nM; AC50 [8]: > 50000 nM; IC50 [4]: > 10000 nM; IC50 (Aurora kinase A): > 10000 nM; IC50 [5]: > 10000 nM; IC50 (Mu-type opioid receptor): > 10000 nM; IC50 (Catalase): > 10000 nM; IC50 [9]: > 10000 nM
CC(=O)N1CCN(C(=O)c2ccc(Cn3nnc4c3C(=O)c3ccccc3C4=O)cc2)CC1,1100,176,–
O=C1c2ccccc2C(=O)c2c1nnn2Cc1ccc(C(=O)N2CCOCC2)cc1,982,116,–
CN1CCN(C(=O)c2ccc(Cn3nnc4c3C(=O)c3ccccc3C4=O)cc2)CC1,2070,108,–
COC1CCN(C(=O)c2ccc(Cn3nnc4c3C(=O)c3ccccc3C4=O)cc2)CC1,1590,209,–
CCN(CC)C(=O)Cc1ccc(Cn2nnc3c2C(=O)c2ccccc2C3=O)cc1,922,145,–

# Further lines, with some results ahead:
IC50 [6] [nM],IC50 [7] [nM],Structure (SMILES),further results
809,561,Cc1ccccc1Cn1nnc2c1C(=O)c1ccccc1C2=O,IC50 [1]: > 10000 nM; IC50 [2]: > 10000 nM; IC50 [3]: > 10000 nM; IC50 [4]: > 10000 nM; IC50 (Aurora kinase A): > 10000 nM; IC50 [5]: > 10000 nM; IC50 (Mu-type opioid receptor): > 10000 nM; IC50 (Catalase): > 10000 nM
4610,1750,Cc1cccc(Cn2nnc3c2C(=O)c2ccccc2C3=O)c1,–
767,711,O=C1c2ccccc2C(=O)c2c1nnn2Cc1cccc(Cl)c1,AC50 [8]: > 50000 nM; IC50 [9]: > 10000 nM
1770,1090,Cc1ccc(Cn2nnc3c2C(=O)c2ccccc2C3=O)cc1,–
3160,768,O=C1c2ccccc2C(=O)c2c1nnn2Cc1cccc(Br)c1,–
1240,167,O=C(O)c1cccc(Cn2nnc3c2C(=O)c2ccccc2C3=O)c1,–
